From PMC12304301, “The Drosophila DEG/ENaC PPK12 is a Na^+ leak channel with a low Na^+ affinity” (Scientific Reports, 2025) come the findings set out here.

For assay [1], the target named is T1, PPK12 (Drosophila melanogaster, UniProt Q9W250).
T1 construct: cRNA expressed alone in Xenopus laevis oocytes; DEG/ENaC family members are trimers
T1 sequence (Q9W250 1-569): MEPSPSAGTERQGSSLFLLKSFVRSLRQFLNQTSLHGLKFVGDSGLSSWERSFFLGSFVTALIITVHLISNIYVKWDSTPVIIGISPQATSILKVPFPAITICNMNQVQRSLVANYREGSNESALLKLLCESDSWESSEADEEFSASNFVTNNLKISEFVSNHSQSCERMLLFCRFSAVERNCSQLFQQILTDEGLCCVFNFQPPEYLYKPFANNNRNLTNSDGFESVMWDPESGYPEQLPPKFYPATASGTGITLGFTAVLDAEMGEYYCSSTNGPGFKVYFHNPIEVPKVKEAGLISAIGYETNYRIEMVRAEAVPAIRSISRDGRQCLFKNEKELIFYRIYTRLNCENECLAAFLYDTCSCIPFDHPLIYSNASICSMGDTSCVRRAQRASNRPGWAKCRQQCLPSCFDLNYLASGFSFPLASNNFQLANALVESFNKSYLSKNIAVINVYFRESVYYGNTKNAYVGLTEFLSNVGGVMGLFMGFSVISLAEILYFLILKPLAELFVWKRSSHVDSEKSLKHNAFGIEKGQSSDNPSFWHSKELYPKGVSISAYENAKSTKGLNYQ
Description: two-electrode voltage clamp of Xenopus oocytes, block of NMDG-sensitive constitutive current. The assay is classed as cell-based.

For assay [2], the target named is T1, PPK12. Description: two-electrode voltage clamp of Xenopus oocytes, inhibition of total constitutive current. The assay is classed as cell-based. To be noted: 140 mM NaCl bath, pH 7.4, -70 mV; only part of current carried by PPK12. In general terms: Two-electrode voltage clamp holds a large cell at a set potential and records current.

As usually defined, the IC50 is the point on the concentration scale where inhibition reaches its midpoint. High values mean weaker potency, low ones greater potency. Regarding `N=C(N)NC(=O)c1nc(Cl)c(N)nc1N` [amiloride], it took 220 ± 20 µM to reach half-maximal inhibition against PPK12 [1] (IC50).
As for `NC(=NC(=O)c1nc(Cl)c(N)nc1N)NCc1ccccc1` [benzamil], the “% inhibition at 100 μM” value at PPK12 [2] was “amiloride, its analog benzamil, and diminazene–partially and reversibly inhibited constitutive currents in PPK12-expressing oocytes”.
With `N=C(N)c1ccc(/N=N/Nc2ccc(C(=N)N)cc2)cc1` [diminazene], the IC50 against PPK12 [1] stood at 110 ± 10 µM.
